Assay results taken from patent publication US10004687B2 (priority 2005, dated 2018).
In brackets after ≈: the same amount, converted by molar mass. Several values for one entry are separate records, joined by “and”; a condition that tells them apart may be missing. Equal values may be shown once. Read-outs that look alike come from different tables or passages of the source.

Legend:
[1] = tested on: Capan-1 pancreatic carcinoma cells; assay: MTT proliferation/survival assay, 72 hours incubation; assay type: cell-based; settings: Homo sapiens
Method: (§1) Controls were exposed to 0.1% v/v DMSO. Proliferation and survival of the pancreatic cells were assessed by MTT assay, a standard colorimetric assay used to measure cell survival and proliferation (Mosman, 1983). MTT (3-[4,5-cimethylthiazol-2-yl]-2,5-diphenyl tetrazolium bromide) is cleaved by living cells to yield a dark blue formazan product. The color is quantitated by spectrophotometer and reflects cellular proliferation and survival. […] The control for each assay was exposed to 0.1% v/v DMSO.
(§2) MTT proliferation/survival assay was performed after 72 hours of incubation.
(§3) FIGS. 5-10 show graphs of the results of the assays using Bxpc-3, Capan-1, Capan-2, HS766-1 and ASPC-1 cell lines, respectively. […] The MTT assay was performed after pancreatic cells were exposed for 72 hours to each compound at concentrations ranging from 0 to 5 μg/ml.

[2] = tested on: HS766-T pancreatic carcinoma cells; assay: as above; assay type: cell-based; settings: Hs766T
Method: as §1, §2, §3

[3] = tested on: Bxpc-3 pancreatic carcinoma cells; assay: as above; assay type: cell-based; settings: Homo sapiens
Method: as §1, §2, §3

[4] = tested on: Capan-2 pancreatic carcinoma cells; assay: as above; assay type: cell-based; settings: Homo sapiens, Capan-2, 72 h, CAPAN-2, MTT assay
Method: as §1, §2, §3

[5] = tested on: ASPC-1 pancreatic carcinoma cells; assay: as above; assay type: cell-based; settings: Homo sapiens, ASPC1, ASPC-1, MTT assay
Method: as §1, §2, §3

[6] = tested on: pancreatic BxPC-3 or HS766-T cells; assay: Apoptosis assay, Annexin-V/Proopidium iodide staining (FACS analysis); assay type: cell-based; settings: concentrations equal to IC50 or IC90 of liposomal curcumin, 72 hours
Method: Apoptosis assay was performed using either pancreatic BxPC-3 or HS766-T cells. […] After incubation for 72 hours, the cells were assayed using Annexin-V/Proopidium iodide staining (FACS analysis) to determine how much apoptosis had occurred.

[7] = cited from earlier work
[8] = animal studies to date; cited from earlier work
[9] = tested on: pancreatic Bxpc-3, Capan-1, Capan-2, HS766-T and ASPC-1 cells; assay: MTT proliferation/survival assay, statements on all five pancreatic lines; assay type: cell-based; settings: seventy-two hours of exposure
Method: as §1, §2, §3

Question: Which results are given for `COc1cc(C=CC(=O)CC(=O)C=Cc2ccc(O)c(OC)c2)ccc1O` [free curcumin, (E,E)-1,7-bis(4-hydroxy-3-methoxyphenyl)-1,6-heptadiene-3,5,-dione]?
Answer: IC50 ([1]; read-out: 50% inhibitory concentration (IC50), Capan-1 cells, approximate): ~5 µM; IC50 ([1]; CAPAN-1, MTT assay, 72 hours incubation, read-out: IC50): 2 µg/mL and 5.4 µM; IC90 ([1]; CAPAN-1, MTT assay, 72 hours incubation, read-out: IC90): 5 µg/mL and 13.5 µM; IC90 ([1]; Capan-1 cells, approximate, read-out: 90% inhibitory concentration (IC90)): ~14 µM; IC50 [2]: 2.6 µg/mL and 7 µM; IC90 [2]: 8 µg/mL and 21.6 µM; IC50 ([3]; read-out: 50% inhibitory concentration (IC50), BxPC-3 cells, approximate): ~5 µM; IC50 ([3]; BXPC-3, MTT assay, 72 hours incubation, read-out: IC50): 2 µg/mL and 5.4 µM; IC90 ([3]; BXPC-3, MTT assay, 72 hours incubation, read-out: IC90): 5 µg/mL and 13.5 µM; IC90 ([3]; BxPC-3 cells, approximate, read-out: 90% inhibitory concentration (IC90)): ~14 µM; IC50 [4]: 17 µg/mL (≈ 46.1 µM); IC90 [4]: 35 µg/mL (≈ 95 µM); IC50 [5]: 4 µg/mL and 10.8 µM; IC90 [5]: 10 µg/mL and 27 µM; apoptosis after treatment [6]: dose-related apoptosis; solubility in ethanol, alkalis, ketones, acetic acid and chloroform [7]: soluble; solubility in water ([7]; water): insoluble; LD50 [8]: never reached an LD50; pancreatic cell growth (MTT) [9]: inhibited pancreatic cell growth of all five lines tested in a concentration-dependent manner
